“And” between values parts separate entries of the source, which are not always exact repeats. Identical values can stand only once.
What was measured:
[1] = system: human stem cells; assay: Version A differentiation, flow cytometry of Nkx6.1 and Isl1 at completion of Stage 5 (S5C); assay type: cell-based
Protocol: (§1) An exemplary base differentiation protocol, Version A, according to the present disclosure, was used for differentiating human stem cells into mature β cells capable of releasing insulin in response to glucose challenge in vitro.
(§2) Version A protocol is a 6-stage stepwise protocol. With Version A protocol, stem cells were treated with reagents in a manner similar to the Version A described in Example 1 of U.S. Patent Publication No. US20220090020A1, which is incorporated by reference herein in its entirety. In some experiments, Version A was modified such that 100 ng/mL Activin A at Stage 1 was replaced with a different concentration of Activin A as described below.
(§3) In one experiment, differentiation of the stem cells was initiated in spinner flasks using Version A protocol, and three different concentrations of Activin A (“AA”), 100 ng/mL (100%), 10 ng/mL (10%), and 5 ng/mL (5%), applied throughout the three days of Stage 1 were tested, while the remaining differentiation steps were kept the same. On QC days, e.g., upon completion of Stage 1 (“S1C”), completion of Stage 3 (“S3C”), or completion of Stage 5 (“S5C”), the cells were examined for their morphology and cell constituents. Specifically, 5 mL of cell cluster suspension solution were taken from the spinner flask, with 1 mL suspension aliquoted into a 24 well plate. Pictures of the cell clusters in the 24-well plate were taken under brightfield microscope. The cell clusters in the remaining 4 mL suspension were dispersed with TrypLE Express (Life Technologies; 12,604,013) at 37° C. for 20 min, fixed with 4% PFA for 20 mins at 4° C., blocked for 1 hour in FACS buffer (5% Donkey Serum and 0.05% Triton-100 in PBS) at room temperature, and stained with various antibodies against cell markers. Stained cells were then measured using an Accuri 6 flow cytometer (BD Biosciences) and analyzed using FlowJo software.
(§4) In one experiment, four different conditions for Stage 1 differentiation were tested: 100% Activin A, 10% Activin A, 10% Activin A plus GSK-690693 (“GSK”), or 10% Activin A plus BYL719 (“BYL”). Characterization of cell morphology and cell constituents were conducted similarly as described in EXAMPLE 1. The experiment was repeated for four times. Table 3 summarizes the quantification of flow cytometry analysis results at S1C, S3C, and S5C, and total viable cell yield at S5C for the four runs. In all the four runs, 0.1 μM […] or 0.04 μM BYL719 was applied for 3 days of Stage 1, except that in the last two runs, Run 4 and Run 5, 0.04 μM of BYL719 was applied for only 2 days (days S1d1 and S1d2).
(§5) In one experiment, six different conditions for Stage 1 differentiation were tested: 100% Activin A, 10% Activin A, 10% Activin A plus GSK-690693, 10% Activin A plus BYL719, 10% Activin A plus GSK-690693 and BYL719, or 100% Activin A plus GSK-690693 and BYL719. Characterization of cell morphology and cell constituents were conducted similarly as described in EXAMPLE 1. FIGS. 2A-5E and Table 4 summarize the characterizations of the cells obtained under the six differentiation conditions at different stages.

[2] = system: Stem cells; assay: 384-well screen of small molecule compounds for Stage 1 differentiation to Sox17-positive definitive endoderm cells (immunostaining, DAPI)
Protocol: In one experiment, more than 2100 small molecule compounds (“test compounds”) from a small molecule chemogenomic library were tested for their effects on Stage 1 differentiation from stem cells to Sox17-positive definitive endoderm cells. […] Each test compound was tested at about 8 different concentrations. The resulting cell population in each well was then examined by immunostaining and image analysis to determine the percentage of cells expressing Sox17 and/or Oct14 (via immunostaining of Sox17 and Oct 14), and total cell count (via DAPI staining). […] Quantification thresholds correspond to staining signal and were defined as low, normal, or high. Low indicates a low threshold was set for dectection of Sox17+ staining (i.e., easy to detect Sox17+) and high would be only highest expressing Sox17+ cells are detected.

[3] = system: human stem cells; assay: Stage 1 differentiation of stem cells (Version A protocol), flow cytometry of Oct4 and Sox17 at completion of Stage 1 (S1C); assay type: cell-based
Protocol: as §1, §2, §3
In another experiment, a dose-response test was conducted to examine the effects of different concentrations of Activin A at Stage 1 on stem cell differentiation. Five different concentrations of Activin A were tested: 100 ng/mL (100%), 20 ng/mL (20%), 10 ng/mL (10%), 5 ng/mL (5%), and 0 ng/mL (0%).
as §4, §5

[4] = system: human stem cells; assay: Version A differentiation, flow cytometry of Pdx1, Cdx2 and Sox2 at completion of Stage 3 (S3C); assay type: cell-based
Protocol: as §1, §2, §3, §4, §5

[5] = system: human stem cells; assay: Total viable cell yield at S5C; assay type: cell-based; conditions: 0.1 μM GSK for 3 days of Stage 1 plus 10% AA, Runs 4-5, listed as GSK
Protocol: as §1, §2, §4

[6] = system: human stem cells; assay: Version A differentiation, flow cytometry of Nkx6.1 and Isl1 on day 7 of Stage 6 (S6d7); assay type: cell-based; conditions: for Markers on S6d7 Isl1 + /Nkx6.1+ / Markers on S6d7 Isl1 + /Nkx6.1−: 10% AA plus the compound(s) at Stage 1
Protocol: as §1, §2, §3, §5
In another experiment, the effects of the aforementioned six different conditions for Stage 1 differentiation on Stage 6 differentiation were tested under two Stage 6 medium regimens: regimen 1 (Table 5) and regimen 2 (Table 6).

[7] = 0.1 μM GSK for 3 days of Stage 1 plus 10% AA (10 ng/mL Activin A), Runs 3-5, listed as GSK
[8] = 10% AA (10 ng/mL Activin A) plus the compound(s) at Stage 1
[9] = 10 ng/mL AA plus test compound, about 8 concentrations, dose-responsive manner

## CCn1c(-c2nonc2N)nc2c(C#CC(C)(C)O)ncc(OC[C@H]3CCCNC3)c21 [GSK-690693]
[1]; [7]
  S5C Nkx6.1+/Isl1+: 31.1 and 35.6 and 28.5
[1]; [8]
  S5C Nkx6.1+/Isl1+: 28.5%
[2]; [9]
  signal in Oct 4 channel: decrease
  signal in Sox17 channel: increase
[2]; Stage 1 condition with 10 ng/mL AA and the test compound, 384-well plates
  Relative to 100 ng/mL AA (percentage of Sox17-positive cells normalized by the percentage with 100 ng/mL AA): 119%
[2]; visual inspection
  nuclear blebbing in the resulting cell population: not to induce
[3]; 0.1 μM GSK for 3 days of Stage 1 plus 10% AA (10 ng/mL Activin A), Runs 2-5, listed as GSK
  S1C Sox17+/Oct4−: 69 and 84.9 and 91.6 and 60
[3]; [8]
  S1C Sox17 + /Oct4+: 2.86%
  S1C Sox17+/Oct4−: 91.6%
[4]; [7]
  S3C Pdx1: 57.5 and 91.1 and 89.4
[4]; [8]
  S3C Pdx1 + /Cdx2+: 6.70%
  S3C Pdx1 + /Sox2+: 37.3%
[5]
  St5C yield: 3.02e+06 mL⁻¹ and 5.4416e+06 mL⁻¹
[6]; 10% AA (10 ng/mL Activin A) plus the compound(s) at Stage 1, day 7 of Stage 6
  S6d7 Nkx6.1 + /Isl1+: 34.8%
[6]; Stage 6 Regimen 1
  Markers on S6d7 Isl1 + /Nkx6.1+: 34.8
  Markers on S6d7 Isl1 + /Nkx6.1−: 8.17
[6]; Stage 6 Regimen 2
  Markers on S6d7 Isl1 + /Nkx6.1+: 36.3
  Markers on S6d7 Isl1 + /Nkx6.1−: 8.17

Source: patent US20240358767A1, “STEM CELL DIFFERENTIATION AND CHEMICAL COMPOUNDS” (VERTEX PHARMACEUTICALS INCORPORATED, priority 2021, published 2024)
